US20260207604A1, “COMPOUND AND USE THEREOF” (ONQUALITY PHARMACEUTICALS CHINA LTD., priority 2022, published 2026)
pIC50: −log10 of the molar value. Values belong to the molecule of their own block, whether it stands above or below them.

Experiments:
[1] = tested on: 5-FU-induced diarrhea model; test: 5-FU-induced diarrhea model, 5-FU 1-day model; assay type: in vivo, Balb/c mice; details: 5-FU 175 mg/kg once a day, mice
Description: The 5-FU-induced diarrhea model was used as an experimental model of the present invention to evaluate the in vivo activity of the compounds.
Balb/c mice (20-25 g, 7-8 weeks old, Jihui) were acclimated for one week and then randomly assigned to 3 groups (n=10 per group): control group, 5-FU group, and CDK inhibitor group. The control group received the same vehicle as the CDK inhibitor group by oral gavage, followed by injection of the same vehicle as the 5-FU group. The 5-FU group received the same vehicle by oral gavage as the CDK inhibitor group, followed by 5-FU injection. The CDK inhibitor group received oral administration of the CDK inhibitor, followed by 5-FU injection. From day 1 to day 7, the severity of diarrhea was assessed for each mouse according to the diarrhea scoring system.
The diarrhea scoring system was based on the method by Akinobu Kurita (Cancer Chemother Pharmacol 2000; 46:211-20), Grade 0: normal stool; Grade 1: mild diarrhea, slightly soft stool and wet stool; Grade 2: moderate diarrhea, loose stool with slight perianal staining; Grade 3: severe diarrhea, loose watery stool with severe perianal staining.
The diarrhea relief rate (%) was calculated as follows: […]

[2] = tested on: Irinotecan-induced constipation model; test: Irinotecan-induced constipation model; assay type: in vivo, Sprague-Dawley rats; details: irinotecan 260 mg/kg once a day, 1 day, rats
Description: Sprague-Dawley rats (180-200 g, 7-8 weeks old, Jihui) were acclimated for 7 days and randomly divided into three groups: control group, irinotecan group, and CDK inhibitor group, with 10 rats per group. The control group received the same vehicle orally as the CDK inhibitor group, followed by an injection of the same vehicle as the irinotecan group; the irinotecan group received the same oral vehicle as the CDK inhibitor group, followed by an injection of irinotecan; the CDK inhibitor group received the CDK inhibitor orally, followed by an injection of irinotecan.
From Day 2 to Day 7, the degree of constipation was assessed for each rat based on the following score:
Constipation assessment: Feces excreted within a 3-hour period were collected and evaluated for morphology and weight using an electronic balance. Stool reduction rate was calculated according to the method of Ji Eun Kim (Lab Anim Res. 2016 December; 32(4): 231-240). Stool reduction rate (%)=(Control group−Irinotecan or CDK inhibitor group)/Control group×100%.
The constipation relief rate of the CDK inhibitor was calculated as follows: Relief rate (%)=([…])/Irinotecan group stool reduction rate×100%.

[3] = target: CDK2/cyclin E (Homo sapiens, UniProt P24941); test: KinaseProfile radiometric protein kinase assay, CDK2/cyclin E; assay type: biochemical
Procedure: The KinaseProfile radiometric protein kinase assay was used to evaluate the inhibitory activity of the compounds against CDK2/cyclin E, CDK4/cyclin D, CDK6/cyclin D, CDK7/cyclin H and CDK9/cyclin T.
The compounds were prepared in 100% DMSO at a final 50× stock concentration. The working stock solution was added as the first component to the assay wells. CDK2/cyclin E, CDK4/cyclin D, CDK6/cyclin D, CDK7/cyclin H, and CDK9/cyclin T were added in their respective kinase buffers: (CDK4: 8 mM MOPS pH 7.0, 0.2 mM EDTA, 0.03% BSA, 0.03% Tween 20, 20 mM DTT, and 0.2 mg/ml Rb fragment, 10 mM Magnesium acetate; CDK2, CDK6: 8 mM MOPS pH 7.0, 0.2 mM EDTA, 0.1 mg/mL histone H1, 10 mM Magnesium acetate; CDK7: 8 mM MOPS pH 7.0, 0.2 mM EDTA, 500 μM peptide, 10 mM Magnesium acetate; CDK9: 8 mM MOPS pH 7.0, 0.2 mM EDTA, 100 μM […], 10 mM Magnesium acetate) and [γ-^33 P-ATP] was included in the reaction mixture. The reaction was initiated by the addition of the Mg/ATP mixture and incubated at room temperature for 40 minutes. The reaction was terminated by the addition of 0.5% phosphoric acid. Then, 10 μL of the reaction mixture was spotted onto P30 filter pads, washed four times (1 minute each) with 0.425% phosphoric acid, followed by a single wash with methanol. The pads were then dried and counted. The data were recorded, inhibition rates were calculated, and IC50 values were determined accordingly. Table 2 summarizes the in vitro enzymatic inhibitory activity of the compounds of the present application.

[4] = Single-dose intravenous and oral pharmacokinetic study in mice; assay type: in vivo, Balb/c mice
Procedure: Twenty-seven male Balb/c mice were randomly divided into 3 groups, 9 mice in each group. Group 1: mice received an intravenous (IV) dose of Compound 1 at 5 mg/kg with a dosing volume of 5 mL/kg. Blood samples were collected at 0.083, 0.25, 0.5, 1, 2, 4, 6, 8, and 24 hours post-dose using a staggered sampling method. Group 2: mice received an oral (gavage) dose of Compound 1 at 50 mg/kg with a dosing volume of 10 mL/kg. Blood samples were collected at 0.25, 0.5, 1, 2, 4, 6, 8, and 24 hours post-dose using a staggered sampling method. Group 3: mice received an oral (gavage) dose of palbociclib at 50 mg/kg with a dosing volume of 10 mL/kg. Blood samples were collected at 1, 3, 4, 6, 8, 10, 12, and 24 hours post-dose using a staggered sampling method. For each group, 3 samples were collected at each time point. Plasma was separated by centrifugation and stored at −70° C. The concentrations of Compound 1 or palbociclib in plasma were measured using LC-MS/MS.

[5] = 25 mg/kg oral, 6 hours before and 6 hours after 5-FU
[6] = 10 mg/kg oral, 4 hours before irinotecan and 8 hours after irinotecan
[7] = 25 mg/kg oral, 6 hours before irinotecan and 6 hours after irinotecan
[8] = 50 mg/kg oral, 6 hours before irinotecan and 6 hours after irinotecan
[9] = 25 mg/kg oral, 8 hours before 5-FU and 4 hours after 5-FU
[10] = 50 mg/kg oral, 6 hours before and 6 hours after 5-FU
[11] = 5 mg/kg oral, 4 hours before irinotecan and 8 hours after irinotecan
[12] = 50 mg/kg oral, 4 hours before irinotecan and 8 hours after irinotecan
[13] = 100 mg/kg oral, 6 hours before irinotecan and 6 hours after irinotecan
[14] = 10 mg/kg oral, 10 hours before 5-FU and 2 hours after 5-FU
[15] = 25 mg/kg oral, 4 hours before irinotecan and 8 hours after irinotecan
[16] = 50 mg/kg oral, 8 hours before 5-FU and 4 hours after 5-FU
[17] = 100 mg/kg oral, 4 hours before irinotecan and 8 hours after irinotecan
[18] = mouse, male Balb/c mice, IV 5 mg/kg, plasma
[19] = mouse, male Balb/c mice, PO 50 mg/kg, plasma

SMILES: CC(=O)c1c(C)c2cnc(Nc3ccc(N4CCN(S(=O)(=O)NCC(C)(C)CN)CC4)cn3)nc2n(C2CCCC2)c1=O [Compound 6]
diarrhea relief rate [1, 14]: 60% | diarrhea relief rate [1, 9]: 75% | diarrhea relief rate [1, 10]: 80% | diarrhea relief rate ([1]; 100 mg/kg oral, 12 hours before 5-FU): 50% | constipation relief rate [2, 6]: 40% | constipation relief rate [2, 15]: 75% | constipation relief rate [2, 7]: 60% | constipation relief rate [2, 8]: 75% | constipation relief rate ([2]; 150 mg/kg oral, 12 hours before irinotecan): 25% | pIC50 [3]: < 5.00

SMILES: CC(=O)c1c(C)c2cnc(Nc3ccc(N4CCN(S(=O)(=O)NCC(C)CN)CC4)cn3)nc2n(C2CCCC2)c1=O (centres unmarked) [Compound 5]
diarrhea relief rate ([1]; 10 mg/kg oral, 12 hours before 5-FU and 0 hours after 5-FU): 25% | diarrhea relief rate [1, 5]: 40% | diarrhea relief rate [1, 16]: 30% | diarrhea relief rate ([1]; 100 mg/kg oral, 4 hours before 5-FU and 8 hours after 5-FU): 40% | constipation relief rate [2, 11]: 25% | constipation relief rate [2, 7]: 40% | constipation relief rate [2, 12]: 80% | constipation relief rate ([2]; 50 mg/kg oral, 8 hours before irinotecan and 4 hours after irinotecan): 60% | constipation relief rate [2, 17]: 50% | constipation relief rate ([2]; 100 mg/kg oral, 10 hours before irinotecan and 2 hours after irinotecan): 40% | pIC50 [3]: < 5.52

SMILES: CC(=O)c1c(C)c2cnc(Nc3ccc(N4CCN(S(=O)(=O)NCC(C)N)CC4)cn3)nc2n(C2CCCC2)c1=O (centres unmarked) [Compound 3]
diarrhea relief rate [1, 14]: 50% | diarrhea relief rate ([1]; 25 mg/kg oral, 2 hours before 5-FU and 10 hours after 5-FU): 40% | diarrhea relief rate [1, 9]: 60% | diarrhea relief rate ([1]; 150 mg/kg oral, 12 hours before 5-FU and 0 hours after 5-FU): 50% | constipation relief rate ([2]; 25 mg/kg oral, 8 hours before irinotecan and 4 hours after irinotecan): 50% | constipation relief rate ([2]; 25 mg/kg oral, 12 hours before irinotecan and 0 hours after irinotecan): 30% | constipation relief rate [2, 12]: 60% | constipation relief rate [2, 8]: 70% | pIC50 [3]: < 5.00

SMILES: CC(=O)c1c(C)c2c(n(C3CCCC3)c1=O)=NC(Nc1ccc(N3CCN(S(=O)(=O)NCCN)CC3)cn1)NC=2 (centres unmarked) [Compound 1]
F ([4]; male Balb/c mice, PO 50 mg/kg vs IV 5 mg/kg): 0.6% | plasma concentration following oral administration compared with palbociclib ([4]; mice, PO 50 mg/kg, in words): significantly lower than that of palbociclib | AUC(0-t) [4, 18]: 670 ng·h/mL | clearance [4, 18]: 119 mL/min/kg | half-life [4, 18]: 2.69 h | Vd ([4]; mouse, male Balb/c mice, IV 5 mg/kg, plasma, read-out: Vdss): 11 L/kg | AUC(0-t) [4, 19]: 39.2 ng·h/mL | Cmax [4, 19]: 21 ng/mL | Tmax [4, 19]: 1 h | diarrhea relief rate ([1]; 5 mg/kg oral, 8 hours before 5-FU and 4 hours after 5-FU): 50% | diarrhea relief rate ([1]; 10 mg/kg oral, 6 hours before and 6 hours after 5-FU): 40% | diarrhea relief rate ([1]; 25 mg/kg oral, 12 hours before 5-FU): 85% | diarrhea relief rate [1, 16]: 60% | diarrhea relief rate ([1]; 75 mg/kg oral, 6 hours before and 6 hours after 5-FU): 50% | diarrhea relief rate ([1]; 100 mg/kg oral, 8 hours before 5-FU and 4 hours after 5-FU): 75% | constipation relief rate ([2]; 2.5 mg/kg oral, 4 hours before irinotecan and 8 hours after irinotecan): 20% | constipation relief rate ([2]; 5 mg/kg oral, 6 hours before irinotecan and 6 hours after irinotecan): 30% | constipation relief rate [2, 15]: 75% | constipation relief rate [2, 8]: 50% | constipation relief rate [2, 17]: 40% | constipation relief rate [2, 13]: 40% | pIC50 [3]: < 5.00

Continued, in another order:

pIC50 [3]: < 5.52
SMILES: CC(=O)c1c(C)c2cnc(Nc3ccc(N4CCN(S(=O)(=O)NCCCN)CC4)cn3)nc2n(C2CCCC2)c1=O [Compound 4]
diarrhea relief rate ([1]; 10 mg/kg oral, 8 hours before 5-FU and 4 hours after 5-FU): 25% | diarrhea relief rate [1, 5]: 80% | diarrhea relief rate ([1]; 50 mg/kg oral, 12 hours before 5-FU): 70% | diarrhea relief rate ([1]; 10 0 mg/kg oral, 8 hours before 5-FU and 4 hours after 5-FU): 25% | constipation relief rate [2, 6]: 40% | constipation relief rate [2, 7]: 50% | constipation relief rate [2, 8]: 70% | constipation relief rate ([2]; 100 mg/kg oral, 8 hours before irinotecan and 4 hours after irinotecan): 40% | constipation relief rate ([2]; 100 mg/kg oral, 12 hours before irinotecan): 30%

pIC50 [3]: < 5.00
SMILES: CC(=O)c1c(C)c2cnc(Nc3ccc(N4CCN(S(=O)(=O)NCC(C)(C)N)CC4)cn3)nc2n(C2CCCC2)c1=O [Compound 2]
diarrhea relief rate [1, 9]: 60% | diarrhea relief rate ([1]; 25 mg/kg oral, 12 hours before and 12 hours after 5-FU): 40% | diarrhea relief rate [1, 10]: 60% | diarrhea relief rate ([1]; 100 mg/kg oral, 24 hours before 5-FU and 0 hours after 5-FU): 40% | constipation relief rate [2, 11]: 25% | constipation relief rate [2, 12]: 80% | constipation relief rate [2, 13]: 80% | constipation relief rate ([2]; 150 mg/kg oral, 6 hours before irinotecan and 6 hours after irinotecan): 60%
